The values that follow come from patent US20250382305A1 (PTC THERAPEUTICS, INC., priority 2022, published 2025).

The test system of test [1] is Total ATXN3 (tATXN3) protein. Briefly: Endogenous Total ATXN3 (tATXN3) Protein Assay (MSD immunoassay of cell lysates). Format: cell-based. Conditions: average IC50, total ATXN3 protein in cell lysate after 48 h with compound (Table 1). In short, it runs like this:
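Cells in DMEM/10% FBS were plated at 10,000 per well onto 7-point, 3.16-fold compound dilutions in duplicate for 48 h at 37° C, then lysed. Total ATXN3 in lysates was measured by MSD sandwich immunoassay: mouse anti-ATXN3 capture, rabbit anti-ATXN3 detection, SULFO-TAG anti-rabbit. Average IC50 was reported in star bins.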

Another test has as its system ATXN3 pre-mRNA. Briefly: RT-qPCR Assay to Quantify Exon 4 Skipping in ATXN3 pre-mRNA in Cells. Format: cell-based. The conditions noted are these: percent exon 4 skipping in ATXN3 pre-mRNA, RT-qPCR of cell lysates; average IC50. The procedure, abridged: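 Cells plated at 10,000/well onto a 7-point, 3.16-fold DMSO dilution series (duplicates), incubated 24 h at 37 °C, then lysed. Exon 4 skipping measured by one-step RT-qPCR (48 °C RT, 40 cycles); IC50 interpolated from dose-response fit of percent skipping.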

`N[C@@H]1CC=CC[C@H]1c1sc2c(NCc3ccco3)nc(Cl)nc2c1I` [Compound 323, 6-((1R,6R)-6-aminocyclohex-3-en-1-yl)-2-chloro-N-(furan-2-ylmethyl)-7-iodothieno[3,2-d]pyrimidin-4-amine]: the IC50 (in test [1]; with ATXN3 pre-mRNA) was 30 to 300 nM in each case.
As for `Cc1c([C@@H]2OCCC[C@H]2N)sc2c(NCc3ccccc3)cc(Cl)nc12` [Compound 109, 2-((2R,3R)-3-aminotetrahydro-2H-pyran-2-yl)-N-benzyl-5-chloro-3-methylthieno[3,2-b]pyridin-7-amine], the IC50 (in test [1]; with ATXN3 pre-mRNA) was 30 to 300 nM throughout.
With `CC#Cc1c([C@H]2CCCC[C@@H]2N)n(C(F)F)c2c(NCc3ccco3)nc(Cl)nc12` [Compound 331, 6-((1S,2S)-2-aminocyclohexyl)-2-chloro-5-(difluoromethyl)-N-(furan-2-ylmethyl)-7-(prop-1-yn-1-yl)-5H-pyrrolo[3,2-d]pyrimidin-4-amine], the IC50 (in test [1]; with ATXN3 pre-mRNA) was 30 to 300 nM throughout.
As to `N[C@@H]1CCCC[C@H]1c1sc2c(NCc3cccs3)cc(Cl)nc2c1Cl` (single isomer, unassigned) [Compound 36, 2-((1R,2R)-2-aminocyclohexyl)-3,5-dichloro-N-(thiophen-2-ylmethyl)thieno[3,2-b]pyridin-7-amine or 2-((1S,2S)-2-aminocyclohexyl)-3,5-dichloro-N-(thiophen-2-ylmethyl)thieno[3,2-b]pyridine-7-amine], the IC50 (in test [1]; with ATXN3 pre-mRNA) was more than 1000 nM in each case.
For the compound `N[C@H]1CCCO[C@@H]1c1c(Br)c2nc(Cl)cc(NCc3ccco3)c2n1C(F)F` [Compound 270, 2-((2S,3S)-3-aminotetrahydro-2H-pyran-2-yl)-3-bromo-5-chloro-1-(difluoromethyl)-N-(furan-2-ylmethyl)-1H-pyrrolo[3,2-b]pyridin-7-amine], the IC50 (in test [1]; in the test on ATXN3 pre-mRNA) was 30 to 300 nM each time.
For `N[C@@H]1CCC[C@@H](O)[C@H]1c1sc2c(NCc3cccs3)cc(Cl)nc2c1Br` [Compound 355, (1R,2S,3R)-3-amino-2-(3-bromo-5-chloro-7-((thiophen-2-ylmethyl)amino)thieno[3,2-b]pyridin-2-yl)cyclohexan-1-ol], the IC50 (in test [1]; in the test with ATXN3 pre-mRNA) was 30 to 300 nM each time.
For `Cc1c([C@@H]2CCC[C@H]2N)sc2c(NCc3cccs3)cc(Cl)nc12` [Compound 5, 2-((1R,2R)-2-aminocyclopentyl)-5-chloro-3-methyl-N-(thiophen-2-ylmethyl)thieno[3,2-b]pyridin-7-amine], the IC50 (in test [1]; in the test with ATXN3 pre-mRNA) was more than 1000 nM each time.
Turning to `N[C@H]1CCCC[C@]1(F)c1sc2c(NCc3ccccc3)cc(Cl)nc2c1Br` [Compound 37, 2-((1R,2S)-2-amino-1-fluorocyclohexyl)-N-benzyl-3-bromo-5-chlorothieno[3,2-b]pyridin-7-amine], the values for the IC50 (in test [1]; in the test on ATXN3 pre-mRNA) were 300 to 1000 nM and 30 to 300 nM, respectively.
With `N[C@@H]1CCCC[C@H]1c1sc2c(NCc3ccccc3)nc(Cl)nc2c1Br` [Compound 66, 6-((1R,2R)-2-aminocyclohexyl)-N-benzyl-7-bromo-2-chlorothieno[3,2-d]pyrimidin-4-amine], the IC50 (in test [1]; with ATXN3 pre-mRNA) was more than 1000 nM in each case.
Consider `N[C@@H]1CCOC[C@H]1c1sc2c(NCc3ccccc3)cc(Cl)nc2c1Cl` [Compound 406, 2-((3S,4R)-4-aminotetrahydro-2H-pyran-3-yl)-N-benzyl-3,5-dichlorothieno[3,2-b]pyridin-7-amine], for which the figures for the IC50 (in test [1]; in the test on ATXN3 pre-mRNA) were 30 to 300 nM and not above 30 nM, respectively.
Consider `N[C@@H]1CC=CC[C@H]1c1c(I)c2nc(Cl)cc(NCc3cccs3)c2n1C(F)F` [Compound 427, 2-((1R,6R)-6-aminocyclohex-3-en-1-yl)-5-chloro-1-(difluoromethyl)-3-iodo-N-(thiophen-2-ylmethyl)-1H-pyrrolo[3,2-b]pyridin-7-amine], for which the results for the IC50 (in test [1]; with ATXN3 pre-mRNA) were 30 to 300 nM and not above 30 nM, respectively.
The matching figures for `N[C@H]1CCCC(F)(F)[C@@H]1c1sc2c(NCc3cccs3)cc(Cl)nc2c1Cl` [Compound 291, 2-((1R,6S)-6-amino-2,2-difluorocyclohexyl)-3,5-dichloro-N-(thiophen-2-ylmethyl)thieno[3,2-b]pyridin-7-amine]: 30 to 300 nM and 30 to 300 nM.
Taken in the same sequence, the figures for `Cc1c([C@@H]2CCCCC[C@@H]2N)sc2c(NCc3cccs3)cc(Cl)nc12` [Compound 82, 2-((1R,2S)-2-aminocycloheptyl)-5-chloro-3-methyl-N-(thiophen-2-ylmethyl)thieno[3,2-b]pyridin-7-amine] were 300 to 1000 nM and 300 to 1000 nM.
With “2-((1R,2S,6R)-6-amino-2-methylcyclohex-3-en-1-yl)-3-bromo-5-chloro-N-(thiophen-2-ylmethyl)thieno[3,2-b]pyridin-7-amine and 2-((1S,2R,6S)-6-amino-2-methylcyclohex-3-en-1-yl)-3-bromo-5-chloro-N-(thiophen-2-ylmethyl)thieno[3,2-b]pyridin-7-amine [Compound 402]”, the IC50 (in test [1]; in the test on ATXN3 pre-mRNA) was not above 30 nM in each case.
For `N[C@@H]1CCCCCC[C@H]1c1sc2c(NCc3cccs3)cc(Cl)nc2c1Br` [Compound 100, 2-((1R,2R)-2-aminocyclooctyl)-3-bromo-5-chloro-N-(thiophen-2-ylmethyl)thieno[3,2-b]pyridin-7-amine], the IC50 (in test [1]; with ATXN3 pre-mRNA) was more than 1000 nM in each case.
For the compound “2-((3R,4S)-3-aminotetrahydro-2H-pyran-4-yl)-5-chloro-3-iodo-N-(thiophen-2-ylmethyl)thieno[3,2-b]pyridin-7-amine and 2-((3S,4R)-3-aminotetrahydro-2H-pyran-4-yl)-5-chloro-3-iodo-N-(thiophen-2-ylmethyl)thieno[3,2-b]pyridin-7-amine [Compound 275]”, the IC50 (in test [1]; with ATXN3 pre-mRNA) was 30 to 300 nM throughout.
On to `[2H]C1=C([2H])C([2H])([2H])[C@H](c2sc3c(NCc4cccs4)cc(Cl)nc3c2C)[C@@H](N)C1([2H])[2H]` [Compound 261, 2-((1S,6S)-6-aminocyclohex-3-en-1-yl-2,2,3,4,5,5-d6)-5-chloro-3-methyl-N-(thiophen-2-ylmethyl)thieno[3,2-b]pyridin-7-amine], for which the IC50 (in test [1]; in the test on ATXN3 pre-mRNA) was 30 to 300 nM throughout.
As for `Cc1c([C@@H]2CCCC[C@H]2N)sc2c(NCc3ccco3)nc(Cl)nc12` [Compound 59, 6-((1R,2R)-2-aminocyclohexyl)-2-chloro-N-(furan-2-ylmethyl)-7-methylthieno[3,2-d]pyrimidin-4-amine], the IC50 (usually the concentration at which inhibition is half-maximal) in test [1] is more than 1000 nM; with ATXN3 pre-mRNA, 300 to 1000 nM.
Regarding `[2H]C1=C([2H])C([2H])([2H])[C@H](c2sc3c(NCc4cccs4)cc(Cl)nc3c2C)[C@@H](N)C1([2H])[2H]` [Compound 205, 2-((1S,6S)-6-aminocyclohex-3-en-1-yl-2,2,3,4,5,5-d6)-5-chloro-3-methyl-N-(thiophen-2-ylmethyl)thieno[3,2-b]pyridin-7-amine], the IC50 (in test [1]; in the test with ATXN3 pre-mRNA) was not above 30 nM throughout.
For the compound “2-((2R,3R)-3-aminotetrahydro-2H-pyran-2-yl)-5-chloro-N-(furan-2-ylmethyl)-3-methylthieno[3,2-b]pyridin-7-amine and 2-((2S,3S)-3-aminotetrahydro-2H-pyran-2-yl)-5-chloro-N-(furan-2-ylmethyl)-3-methylthieno[3,2-b]pyridin-7-amine [Compound 25]”, the IC50 (in test [1]; in the test on ATXN3 pre-mRNA) was 30 to 300 nM throughout.
In the case of “6-((2S,3S)-3-aminotetrahydro-2H-pyran-2-yl)-7-bromo-2-chloro-5-(difluoromethyl)-N-(furan-2-ylmethyl)-5H-pyrrolo[3,2-d]pyrimidin-4-amine [Compound 215]”, the IC50 (in test [1]; with ATXN3 pre-mRNA) was not above 30 nM each time.
`N[C@@H]1CCCC[C@H]1c1sc2c(NCc3ccco3)cc(Cl)nc2c1Cl` [Compound 296, 2-((1R,2R)-2-aminocyclohexyl)-3,5-dichloro-N-(furan-2-ylmethyl)thieno[3,2-b]pyridin-7-amine]: the IC50 (in test [1]; in the test with ATXN3 pre-mRNA) was 30 to 300 nM each time.
As to `N[C@H]1CC=CC[C@@H]1c1sc2c(NCc3cccs3)cc(Cl)nc2c1C#Cc1ccncc1Cl` [Compound 447, 2-((1S,6S)-6-aminocyclohex-3-en-1-yl)-5-chloro-3-((3-chloropyridin-4-yl)ethynyl)-N-(thiophen-2-ylmethyl)thieno[3,2-b]pyridin-7-amine], the IC50 (in test [1]; in the test on ATXN3 pre-mRNA) was 300 to 1000 nM each time.
For the compound `Cc1c([C@H]2CCC[C@@H]2N)sc2c(NCc3cccs3)cc(Cl)nc12` [Compound 6, 2-((1S,2S)-2-aminocyclopentyl)-5-chloro-3-methyl-N-(thiophen-2-ylmethyl)thieno[3,2-b]pyridin-7-amine], the IC50 (in test [1]; with ATXN3 pre-mRNA) was 30 to 300 nM throughout.
For the compound `N[C@H]1CC=CC[C@@H]1c1sc2c(NCc3ccccc3)nc(Cl)nc2c1Cl` [Compound 263, 6-((1S,6S)-6-aminocyclohex-3-en-1-yl)-N-benzyl-2,7-dichlorothieno[3,2-d]pyrimidin-4-amine], the IC50 (in test [1]; in the test on ATXN3 pre-mRNA) was 30 to 300 nM each time.
Turning to `N[C@H]1CCCC[C@]1(O)c1sc2c(NCc3cccs3)cc(Cl)nc2c1Cl` [Compound 31, (1R,2S)-2-amino-1-(3,5-dichloro-7-((thiophen-2-ylmethyl)amino)thieno[3,2-b]pyridin-2-yl)cyclohexan-1-ol], the IC50 (in test [1]; in the test with ATXN3 pre-mRNA) was more than 1000 nM throughout.
